Reference: patent publication US9637592B2, “Vitamin functionalized gel-forming block copolymers for biomedical applications” (International Business Machines Corporation, priority 2013, dated 2017)

Columns and labels:
C. albicans = assay type: cell-based, Candida albicans; conditions: solution, 5.0 mg/L (5 ppm)
Experimental: A stock solution of cationic polymer VE/PrBr(1:15) (5 mg) in sterile HPLC grade water (10 ml) was prepared having a final concentration of 500 mg/L (500 ppm). A second stock solution of fluconazole (1 mg) in sterile HPLC grade water (100 ml) was prepared having a final concentration of 10 mg/L (10 ppm). […] Formulation (2) was obtained by combining 125 microliters each of the stock solutions of cationic polymer and fluconazole and diluting the resulting solution with 750 microliters of sterile HPLC grade water.

P. aeruginosa = test: killing efficiency / MBC; assay type: cell-based, Pseudomonas aeruginosa; conditions: drug alone
Experimental: Procedure for hydrogels: E. coli, P. aeruginosa, S. aureus and C. albicans were obtained from ATCC and reconstituted from its lyophilized form according to the manufacturer's protocol. Bacterial samples were cultured in Tryptic Soy Broth (TSB) solution at 37° C. under constant shaking of 300 rpm. C. albicans was culture in yeast medium at room temperature under constant shaking of 70 rpm. Prior to treatment, the bacterial sample was first inoculated and cultured to enter into log growth phase. To prepare the antimicrobial hydrogels, cationic polymer was first dissolved in filtered HPLC water in a bio-hood. The resultant solution was then added to solid triblock copolymer for dissolution and left to stand 4 hours at room temperature for the formation of the hydrogels (Example 28 and Example 29). […]
[…] The concentration of bacterial solution was adjusted to give an initial optical density (O.D.) reading of approximately 0.07 at 600 nm wavelength on a microplate reader (TECAN, Switzerland), which corresponds to the concentration of McFarland 1 solution (3×10^8 CFU/mL) The bacterial solution was then diluted and an equal volume of bacterial suspension (3×10^5) was added into each well. […] The plates were incubated for 24 hours at 37° C. and the number of colony-forming units (CFU) was counted. […]

Row | Substance | killing efficiency against C. albicans (C. albicans) [%] | MBC against P. aeruginosa (P. aeruginosa) [µg/mL]
1 | Fluconazole | 93.53 | 
2 | Doxycycline [DXY] |  | 20 to 30
